Literature values in patent publication US10456335B2, “Oral hygiene compositions and methods” (Carson Laboratories, I.P., Inc., priority 2008, dated 2019).

Conditions: eight hour time weighted average

Compound: OO [hydrogen peroxide]
- OSHA permissible exposure limit: 1 ppm
